Measurements: patent publication US9394282B2, “Pyrazole carboxamides as Janus kinase inhibitors” (Merck Sharp & Dohme Corp., priority 2011, dated 2016)

Legend:
JAK1 = JAK1 (Homo sapiens (Human), UniProt P23458); experiment: Jak biochemical HTRF assay, JAK1; details: recombinant purified GST-tagged catalytic domain; HTRF format; [ATP] 31.8 μM
Text: (§1) Jak Biochemical HTRF Assay Protocol
(§2) Subsequent reagent additions employed an Agilent Bravo.

JAK2 = JAK2 (Homo sapiens (Human), UniProt O60674); experiment: Jak biochemical HTRF assay, JAK2; details: recombinant purified GST-tagged catalytic domain; HTRF format; [ATP] 8.5 μM
Text: as §1, §2

Sequence of JAK2 (O60674 849-1124): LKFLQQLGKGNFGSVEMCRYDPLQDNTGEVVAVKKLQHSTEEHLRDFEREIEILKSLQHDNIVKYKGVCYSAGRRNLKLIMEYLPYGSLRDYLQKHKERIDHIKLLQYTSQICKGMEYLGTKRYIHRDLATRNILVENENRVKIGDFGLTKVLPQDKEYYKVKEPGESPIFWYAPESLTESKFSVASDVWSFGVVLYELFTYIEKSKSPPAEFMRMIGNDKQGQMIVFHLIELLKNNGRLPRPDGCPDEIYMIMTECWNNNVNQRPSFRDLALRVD
Sequence of JAK1 (P23458 875-1153): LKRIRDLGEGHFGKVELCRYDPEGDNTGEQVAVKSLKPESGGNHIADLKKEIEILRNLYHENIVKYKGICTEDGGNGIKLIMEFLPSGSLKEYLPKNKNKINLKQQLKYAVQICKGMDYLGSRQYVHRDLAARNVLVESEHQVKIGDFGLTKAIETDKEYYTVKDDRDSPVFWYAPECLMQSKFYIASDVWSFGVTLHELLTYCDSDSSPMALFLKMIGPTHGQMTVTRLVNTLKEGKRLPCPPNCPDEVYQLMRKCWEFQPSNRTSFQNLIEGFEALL

| IC50 (JAK1) | IC50 (JAK2) | Structure (SMILES) |
| --- | --- | --- |
| 0.7 nM | 15 nM | N#CCC1(COC(=O)N2CC[C@@H](C#N)C(n3cc(C(N)=O)c(Nc4ccc(F)cc4)n3)C2)CC1 (mixture of isomers) [Example 5-88, [1-(cyanomethyl)cyclopropyl]methyl (3S,4R and 3R,4S)-3-{4-carbamoyl-3-[(4-fluorophenyl)amino]-1H-pyrazol-1-yl}-4-cyanopiperidine-1-carboxylate] |
| 3 nM | 43 nM | N#C[C@@H]1CCN(C(=O)OC2COC2)CC1n1cc(C(N)=O)c(Nc2ccc(F)cc2)n1 (mixture of isomers) [Example 5-89, oxetan-3-yl (3S,4R and 3R,4S)-3-{4-carbamoyl-3-[(4-fluorophenyl)amino]-1H-pyrazol-1-yl}-4-cyanopiperidine-1-carboxylate] |
| 6 nM | 77 nM | N#C[C@@H]1CCN(Cc2cccnn2)CC1n1cc(C(N)=O)c(Nc2ccc(F)cc2)n1 (mixture of isomers) [Example 6-1, 1-[(3S,4R and 3R,4S)-4-Cyano-1-(pyridazin-3-ylmethyl)piperidin-3-yl]-3-[(4-fluorophenyl)amino]-1H-pyrazole-4-carboxamide] |
| 2 nM | 26 nM | N#C[C@@H]1CCN(Cc2cnccn2)C[C@H]1n1cc(C(N)=O)c(Nc2ccc(F)cc2)n1 (racemic) [Example 6-2, 1-[(3S,4R and 3R,4S)-4-cyano-1-(pyrazin-2-ylmethyl)piperidin-3-yl]-3-[(4-fluorophenyl)amino]-1H-pyrazole-4-carboxamide] |
| 2 nM | 13 nM | N#C[C@@H]1CCN(Cc2ccon2)C[C@H]1n1cc(C(N)=O)c(Nc2ccc(F)cc2)n1 (racemic) [Example 6-3, 1-[(3S,4R and 3R,4S)-4-cyano-1-(isoxazol-3-ylmethyl)piperidin-3-yl]-3-[(4-fluorophenyl)amino]-1H-pyrazole-4-carboxamide] |
| 2 nM | 18 nM | N#C[C@@H]1CCN(Cc2cocn2)C[C@H]1n1cc(C(N)=O)c(Nc2ccc(F)cc2)n1 (racemic) [Example 6-4, 1-[(3S,4R and 3R,4S)-4-cyano-1-(1,3-oxazol-4-ylmethyl)piperidin-3-yl]-3-[(4-fluorophenyl)amino]-1H-pyrazole-4-carboxamide] |
| 2 nM | 14 nM | Cn1ccc(CN2CC[C@@H](C#N)[C@H](n3cc(C(N)=O)c(Nc4ccc(F)cc4)n3)C2)n1 (racemic) [Example 6-5, 1-{(3S,4R and 3R,4S)-4-cyano-1-[(1-methyl-1H-pyrazol-3-yl)methyl]piperidin-3-yl}-3-[(4-fluorophenyl)amino]-1H-pyrazole-4-carboxamide] |
| 2 nM | 19 nM | N#C[C@@H]1CCN(Cc2cscn2)C[C@H]1n1cc(C(N)=O)c(Nc2ccc(F)cc2)n1 (racemic) [Example 6-6, 1-[(3S,4R and 3R,4S)-4-cyano-1-(1,3-thiazol-4-ylmethyl)piperidin-3-yl]-3-[(4-fluorophenyl)amino]-1H-pyrazole-4-carboxamide] |
| 2 nM | 22 nM | N#C[C@@H]1CCN(Cc2ncco2)C[C@H]1n1cc(C(N)=O)c(Nc2ccc(F)cc2)n1 (racemic) [Example 6-8, 1-[(3S,4R and 3R,4S)-4-cyano-1-(1,3-oxazol-2-ylmethyl)piperidin-3-yl]-3-[(4-fluorophenyl)amino]-1H-pyrazole-4-carboxamide] |
| 6 nM | 74 nM | N#C[C@@H]1CCN(CCC2CCOCC2)C[C@H]1n1cc(C(N)=O)c(Nc2ccc(F)cc2)n1 (racemic) [Example 6-10, 1-{(3S,4R and 3R,4S)-4-cyano-1-[2-(tetrahydro-2H-pyran-4-yl)ethyl]piperidin-3-yl}-3-[(4-fluorophenyl)amino]-1H-pyrazole-4-carboxamide] |
| 25 nM | 533 nM | CC(C)(O)C1CC(CN2CC[C@@H](C#N)[C@H](n3cc(C(N)=O)c(Nc4ccc(F)cc4)n3)C2)C1 (mixture of isomers) [Example 6-11, 1-[(3S,4R and 3R,4S)-4-cyano-1-{[3-(1-hydroxy-1-methylethyl)cyclobutyl]methyl}piperidin-3-yl]-3-[(4-fluorophenyl)amino]-1H-pyrazole-4-carboxamide] |
| 2 nM | 20 nM | Cn1nccc1CN1CC[C@@H](C#N)[C@H](n2cc(C(N)=O)c(Nc3ccc(F)cc3)n2)C1 (racemic) [Example 6-13, 1-{(3S,4R and 3R,4S)-4-cyano-1-[(1-methyl-1H-pyrazol-5-yl)methyl]piperidin-3-yl}-3-[(4-fluorophenyl)amino]-1H-pyrazole-4-carboxamide] |
| 4 nM | 42 nM | Cc1cc(CN2CC[C@@H](C#N)[C@H](n3cc(C(N)=O)c(Nc4ccc(F)cc4)n3)C2)no1 (racemic) [Example 6-14, 1-{(3S,4R and 3R,4S)-4-cyano-1-[(5-methylisoxazol-3-yl)methyl]piperidin-3-yl}-3-[(4-fluorophenyl)amino]-1H-pyrazole-4-carboxamide] |
| 1 nM | 20 nM | Cc1c(CN2CC[C@@H](C#N)[C@H](n3cc(C(N)=O)c(Nc4ccc(F)cc4)n3)C2)cnn1C (racemic) [Example 6-15, 1-{(3S,4R and 3R,4S)-4-cyano-1-[(1,5-dimethyl-1H-pyrazol-4-yl)methyl]piperidin-3-yl}-3-[(4-fluorophenyl)amino]-1H-pyrazole-4-carboxamide] |
| 0.7 nM | 14 nM | N#C[C@@H]1CCN(Cc2ccc(F)cn2)C[C@H]1n1cc(C(N)=O)c(Nc2ccc(F)cc2)n1 (racemic) [Example 6-16, 1-{(3S,4R and 3R,4S)-4-cyano-1-[(5-fluoropyridin-2-yl)methyl]piperidin-3-yl}-3-[(4-fluorophenyl)amino]-1H-pyrazole-4-carboxamide] |
| 6 nM | 98 nM | CC1=NOC(CN2CC[C@@H](C#N)[C@H](n3cc(C(N)=O)c(Nc4ccc(F)cc4)n3)C2)C1 (mixture of isomers) [Example 6-20, 1-{(3S,4R and 3R,4S)-4-cyano-1-[(3-methyl-4,5-dihydroisoxazol-5-yI)methyl]piperidin-3-yl}-3-[(4-fluorophenyl)amino]-1H-pyrazole-4-carboxamide] |
| 6 nM | 63 nM | N#C[C@@H]1CCN(CC2CCOC2)C[C@H]1n1cc(C(N)=O)c(Nc2ccc(F)cc2)n1 (mixture of isomers) [Example 6-21, 1-[(3S,4R and 3R,4S)-4-cyano-1-(tetrahydrofuran-3-ylmethyl)piperidin-3-yl]-3-[(4-fluorophenyl)amino]-1H-pyrdzole-4-carboxamide] |
| 19 nM | 220 nM | N#C[C@@H]1CN(Cc2cccnn2)CC[C@H]1n1cc(C(N)=O)c(Nc2ccc(F)cc2)n1 (racemic) [Example 6-22, 1-[(3R,4R and 3S,4S)-3-cyano-1-(pyridazin-3-ylmethyl)piperidin-4-yl]-3-[(4-fluorophenyl)amino]-1H-pyrazole-4-carboxamide] |
| 3 nM | 34 nM | N#C[C@@H]1CN(Cc2ccon2)CC[C@H]1n1cc(C(N)=O)c(Nc2ccc(F)cc2)n1 (racemic) [Example 6-24, 1-[(3R,4R and 3S,4S)-3-cyano-1-(isoxazol-3-ylmethyl)piperidin-4-yl]-3-[(4-fluorophenyl)amino]-1H-pyrazole-4-carboxamide] |
| 7 nM | 92 nM | Cc1cc(CN2CC[C@@H](n3cc(C(N)=O)c(Nc4ccc(F)cc4)n3)[C@H](C#N)C2)no1 (racemic) [Example 6-33, 1-{(3R,4R and 3S,4S)-3-cyano-1-[(5-methylisoxazol-3-yl)methyl]piperidin-4-yl}-3-[(4-fluorophenyl)amino]-1H-pyrazole-4-carboxamide] |
| 10 nM | 111 nM | Cc1c(CN2CC[C@@H](n3cc(C(N)=O)c(Nc4ccc(F)cc4)n3)[C@H](C#N)C2)cnn1C (racemic) [Example 6-34, 1-{(3R,4R and 3S,4S)-3-cyano-1-[(1,5-dimethyl-1H-pyrazol-4-yl)methyl]piperidin-4-yl}-3-[(4-fluorophenyl)amino]-1H-pyrazole-4-carboxamide] |
| 5 nM | 79 nM | N#C[C@@H]1CN(Cc2cccnc2F)CC[C@H]1n1cc(C(N)=O)c(Nc2ccc(F)cc2)n1 (racemic) [Example 6-35, 1-{(3R,4R and 3S,4S)-3-cyano-1-[(2-fluoropyridin-3-yl)methyl]piperidin-4-yl}-3-[(4-fluorophenyl)amino]-1H-pyrazole-4-carboxamide] |
| 5 nM | 104 nM | Cc1ncc(CN2CC[C@@H](n3cc(C(N)=O)c(Nc4ccc(F)cc4)n3)[C@H](C#N)C2)s1 (racemic) [Example 6-37, 1-{(3R,4R and 3S,4S)-3-cyano-1-[(2-methyl-1,3-thiazol-5-yl)methyl]piperidin-4-yl}-3-[(4-fluorophenyl)amino]-1H-pyrazole-4-carboxamide] |
| 7 nM | 82 nM | CCn1ccnc1CN1CC[C@@H](n2cc(C(N)=O)c(Nc3ccc(F)cc3)n2)[C@H](C#N)C1 (racemic) [Example 6-38, 1-{(3R,4R and 3S,4S)-3-cyano-1-[(1-ethyl-1H-imidazol-2-yl)methyl]piperidin-4-yl}-3-[(4-fluorophenyl)amino]-1H-pyrdzole-4-carboxamide] |
| 7 nM | 52 nM | N#C[C@H]1CCOC[C@@H]1n1cc(C(N)=O)c(Nc2ccc(OC(F)(F)F)cc2)n1 (single isomer, unassigned) [Example 9-20, 1-[(3R,4S or 3S,4R)-4-cyanotetrahydro-2H-pyran-3-yl]-3-{[4-(trifluoromethoxy)phenyl]amino}-1H-pyrazole-4-carboxamide] |
| 0.1 nM | 0.6 nM | CC1(c2ccc(Nc3nn([C@H]4COCC[C@@H]4C#N)cc3C(N)=O)cc2)COC1 (single isomer, unassigned) [Example 9-24, 1-[(3R,4S or 3S,4R)-4-cyanotetrahydro-2H-pyran-3-yl]-3-{[4-(3-methyloxetan-3-yl)phenyl]amino}-1H-pyrazole-4-carboxamide] |
